In patent US20230136297A1, “Methods Of Treating Fabry Disease In Patients Having A Mutation In The GLA Gene” (Amicus Therapeutics, Inc., priority 2020, published 2023):
Substitutions are numbered along the chain they refer to.

Experiments:
Assay in all cases: α-Gal A activity in lysates of transfected HEK-293 cells ± migalastat (HEK assay)
Format in all cases: cell-based
[1] = molecular target: T1, α-Gal A mutant form A291S (Homo sapiens, UniProt P06280, A291S)
T1 construct: expressed in transfected cells; host or cells: HEK-293
T1 sequence (P06280 32-429 A291S): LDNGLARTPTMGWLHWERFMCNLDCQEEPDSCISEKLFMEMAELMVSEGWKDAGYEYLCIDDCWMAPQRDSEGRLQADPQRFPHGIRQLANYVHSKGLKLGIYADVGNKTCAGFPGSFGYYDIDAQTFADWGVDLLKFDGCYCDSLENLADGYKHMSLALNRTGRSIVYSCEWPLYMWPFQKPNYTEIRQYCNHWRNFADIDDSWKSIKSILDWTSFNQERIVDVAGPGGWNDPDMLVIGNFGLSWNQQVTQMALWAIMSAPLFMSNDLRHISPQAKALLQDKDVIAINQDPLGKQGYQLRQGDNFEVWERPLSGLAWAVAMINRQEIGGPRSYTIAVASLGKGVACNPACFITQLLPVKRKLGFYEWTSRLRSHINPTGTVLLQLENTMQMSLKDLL
Description: (§1) Such mutations or variants are also referred to herein as “HEK assay amenable” mutations or variants.
(§2) The α-Gal A activity is expressed as the nmoles of free 4-MU released per milligram of protein per hour (nmol/mg/hr).

[2] = molecular target: T2, α-Gal A mutant form P259S (Homo sapiens, UniProt P06280, P259S)
T2 construct: expressed in transfected cells; host or cells: HEK-293
T2 sequence (P06280 32-429 P259S): T1 sequence (P06280 32-429 A291S) with P228S, S260A
Description: as §1, §2

[3] = molecular target: T3, α-Gal A mutant form L180V (Homo sapiens, UniProt P06280, L180V)
T3 construct: expressed in transfected cells; host or cells: HEK-293
T3 sequence (P06280 32-429 L180V): T1 sequence (P06280 32-429 A291S) with L149V, S260A
Description: as §1, §2

[4] = molecular target: T4, α-Gal A mutant form A257T (Homo sapiens, UniProt P06280, A257T)
T4 construct: expressed in transfected cells; host or cells: HEK-293
T4 sequence (P06280 32-429 A257T): T1 sequence (P06280 32-429 A291S) with A226T, S260A
Description: as §1, §2

[5] = molecular target: T5, α-Gal A mutant form I133F (Homo sapiens, UniProt P06280, I133F)
T5 construct: expressed in transfected cells; host or cells: HEK-293
T5 sequence (P06280 32-429 I133F): T1 sequence (P06280 32-429 A291S) with I102F, S260A
Description: as §1, §2

[6] = 10 μM migalastat minus baseline
[7] = HEK-293 lysates, 10 μM migalastat 5 days, mean ± SEM

## OC[C@H]1NC[C@H](O)[C@@H](O)[C@H]1O [migalastat, (2R,3S,4R,5S)-2-(hydroxymethyl) piperdine-3,4,5-triol]
[1]; [6]
  Absolute increase (% WT): 26.8 % WT
[1]; 10 μM migalastat ÷ baseline
  Relative increase: 1.55
[1]; [7]
  10 μM migalastat α-Gal A activity: 20029 ± 1654 nmol/mg/h
  10 μM migalastat α-Gal A activity (% WT): 74.5 ± 4^ % WT
[2]; [6]
  Absolute increase (% WT): 35.5 % WT
[2]; 10 μM migalastat ÷ baseline
  Relative increase: 1.86
[2]; [7]
  10 μM migalastat α-Gal A activity: 28621 ± 3141 nmol/mg/h
  10 μM migalastat α-Gal A activity (% WT): 79.8 ± 4.8 % WT
[3]; [6]
  Absolute increase (% WT): 36.2 % WT
[3]; 10 μM migalastat ÷ baseline
  Relative increase: 1.97
[3]; [7]
  10 μM migalastat α-Gal A activity: 25437 ± 1279 nmol/mg/h
  10 μM migalastat α-Gal A activity (% WT): 73.4 ± 2.9 % WT
[4]; [6]
  Absolute increase (% WT): 40.6 % WT
[4]; 10 μM migalastat ÷ baseline
  Relative increase: 2.56
[4]; [7]
  10 μM migalastat α-Gal A activity: 18990 ± 1196 nmol/mg/h
  10 μM migalastat α-Gal A activity (% WT): 66.2 ± 4.1 % WT
[5]; [6]
  Absolute increase (% WT): 3.1 % WT
[5]; 10 μM migalastat ÷ baseline
  Relative increase: 5.27
[5]; [7]
  10 μM migalastat α-Gal A activity: 1542 ± 154 nmol/mg/h
  10 μM migalastat α-Gal A activity (% WT): 3.8 ± 0.3 % WT
